In paper PMC8498988, “Scaffold Hybridization Strategy Leads to the Discovery of Dopamine D3 Receptor-Selective or Multitarget Bitopic Ligands Potentially Useful for Central Nervous System Disorders” (ACS Chemical Neuroscience, 2021):

How the values were obtained:
human 5-HT1AR = target: T1, human 5-HT1AR (Homo sapiens, UniProt P08908); test: 5-HT1A [35S]GTPγS binding assay (HeLa cell membranes); format: biochemical; conditions: for EC50 / % stimul., 5-HT1A [35S]GTPγS binding: agonist mode; for % stimul., 5-HT1A [35S]GTPγS binding: standard agonist serotonin; for functional behavior at 5-HT1AR: in words
T1 construct: expressed in transfected cells; host or cells: HeLa
T1 sequence (P08908 1-422): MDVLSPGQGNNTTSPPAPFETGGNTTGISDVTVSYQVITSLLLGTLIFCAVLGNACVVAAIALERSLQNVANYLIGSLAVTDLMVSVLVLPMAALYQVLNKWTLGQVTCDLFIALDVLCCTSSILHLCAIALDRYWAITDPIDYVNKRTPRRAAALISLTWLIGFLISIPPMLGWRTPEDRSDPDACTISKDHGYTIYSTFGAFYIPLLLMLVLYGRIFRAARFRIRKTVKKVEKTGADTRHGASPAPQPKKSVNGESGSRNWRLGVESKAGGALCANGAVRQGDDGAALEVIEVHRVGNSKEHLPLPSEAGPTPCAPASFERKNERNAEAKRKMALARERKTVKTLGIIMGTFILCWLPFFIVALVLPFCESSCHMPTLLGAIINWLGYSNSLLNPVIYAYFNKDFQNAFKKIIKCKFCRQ
Experimental: The effects of the various compounds tested on [^35S]GTPγS binding in HeLa cells expressing the recombinant human 5-HT1AR were evaluated according to the method of Stanton and Beer with minor modifications. The stimulation experiments are as follows: Cell membranes (50–70 μg of protein) were resuspended in buffer containing 20 mM HEPES, 3 mM MgSO4, and 120 mM NaCl (pH 7.4). […] The samples were transferred to ice, [^35S]GTPγS (200 pM) was added, and the samples were incubated for further 30 min at 30 °C. The preincubation with both agonist and antagonist, before initiating the [^35S]GTPγS binding, ensures that agonist and antagonist are at equilibrium. Nonspecific binding was determined in the presence of […]. Incubation was stopped by the addition of ice-cold HEPES buffer and rapid filtration on Unifilter B filters (PerkinElmer) using a Filtermate cell harvester (Packard). The filters were washed with ice-cold Hepes buffer, and the radioactivity retained on the filters was determined by a TopCount, PerkinElmer liquid scintillation counter at 90% efficiency.

5-HT2AR = 5-HT2AR (Homo sapiens, UniProt P28223); test: Radioligand binding assay at human 5-HT2AR ([125I]DOI, HEK cells); design: expressed in transfected cells; host or cells: HEK (HEK-h5HT2A); conditions: HEK cells expressing h5-HT2AR, read-out: Ki ± SEM, 5-HT2AR
Experimental: Human embryonic kidney cells expressing human 5HT2AR (HEK-h5HT2A) or human 5HT2CR (HEK-h5HT2C) are used. The cells are grown until confluent on 15 cm plates. The medium is removed, and the cells are washed with phosphate-buffered saline (PBS), scraped into 2 mL PBS, and frozen at −20 °C until needed. Cell suspension is thawed, 10 mL assay buffer (50 mM Tris, pH 7.4 at 37 °C, with 0.1% ascorbic acid and 5 mM CaCl2) is added per plate of cells, and polytronned at setting 6 for 5 s. The homogenate is centrifuged at 15,500 rpm for 20 min. To minimize the residual 5HT concentration, the pellet is resuspended in buffer, polytronned, and centrifuged as mentioned above. The final pellet is resuspended in 2 mL buffer/plate of cells. The binding assay includes 50 μL drug, 5-HT or buffer, 50 μL cell homogenate, 50 μL [^125I]DOI (∼0.1 nM), and buffer in a final volume of 250 μL. Specific binding is defined as the difference between total binding and binding in the presence of 10 μM 5HT. The reaction is incubated for 1 h at 37 °C and terminated by filtration through Wallac A filter mats presoaked in 0.05% polyethylenimine using a Tomtec 96-well harvester. The radioactivity remaining on filters is determined using a Wallac betaplate reader.

Chain of 5-HT2AR (P28223 whole entry): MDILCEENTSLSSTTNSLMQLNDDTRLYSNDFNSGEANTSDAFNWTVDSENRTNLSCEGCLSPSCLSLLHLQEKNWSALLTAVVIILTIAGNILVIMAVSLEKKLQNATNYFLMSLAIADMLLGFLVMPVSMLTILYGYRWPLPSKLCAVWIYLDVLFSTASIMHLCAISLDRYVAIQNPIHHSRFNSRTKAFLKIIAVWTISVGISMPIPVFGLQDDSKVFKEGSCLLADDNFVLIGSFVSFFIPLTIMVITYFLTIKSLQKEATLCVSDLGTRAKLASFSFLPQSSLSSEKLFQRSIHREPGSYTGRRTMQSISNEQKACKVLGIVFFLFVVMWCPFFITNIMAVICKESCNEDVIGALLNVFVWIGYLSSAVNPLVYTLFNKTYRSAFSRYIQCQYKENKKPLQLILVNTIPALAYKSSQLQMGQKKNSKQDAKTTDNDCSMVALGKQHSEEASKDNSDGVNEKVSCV

| SMILES | EC50 (human 5-HT1AR) [nM] | % stimul., 5-HT1A [35S]GTPγS binding (human 5-HT1AR) [%] | functional behavior at 5-HT1AR (human 5-HT1AR) | Ki (5-HT2AR) [nM] |
| --- | --- | --- | --- | --- |
| O=C(NCCCCN1CCN(c2cccc(Cl)c2Cl)CC1)C1COC(c2ccccc2)(c2ccccc2)CO1 (stereo not drawn) [compound 6, N-(4-(4-(2,3-Dichlorophenyl)piperazin-1-yl)butyl)-5,5-diphenyl-1,4-dioxane-2-carboxamide] | 23.9 ± 8.8 | 90.8 | efficacious 5-HT1AR and D4R agonists with high potency | 28 ± 6 |
| O=C(NCCCCN1CCN(c2cccc(Cl)c2Cl)CC1)C1COCC(c2ccccc2)(c2ccccc2)O1 (stereo not drawn) [compound 3, N-(4-(4-(2,3-Dichlorophenyl)piperazin-1-yl)butyl)-6,6-diphenyl-1,4-dioxane-2-carboxamide] | 232 ± 19 | 82.7 | 5-HT1AR full agonist | 257 ± 38 |
| O=C(NCCCCN1CCN(c2cccc(Cl)c2Cl)CC1)C1COc2ccccc2O1 (stereo not drawn) [compound 9, N-(4-(4-(2,3-Dichlorophenyl)piperazin-1-yl)butyl)-2,3-dihydrobenzo[b][1,4]dioxine-2-carboxamide] | 22.7 ± 0.82 | 96.3 | efficacious 5-HT1AR and D4R agonists with high potency | 62 ± 15 |
